Earlier results on 2 compounds are cited in US20150237898A1, “STEVIOSIDE BLENDS” (Cargill, Incorporated, priority 2012, published 2015).

The conditions of this data set: literature.

“Also recorded” adds a separate entry of the source.

`C=C1C[C@@]23CC[C@H]4[C@@](C)(CCC[C@@]4(C)C(=O)O[C@@H]4O[C@H](CO)[C@@H](O)[C@H](O)[C@H]4O)[C@@H]2CC[C@]1(O[C@@H]1O[C@H](CO)[C@@H](O)[C@H](O[C@@H]2O[C@H](CO)[C@@H](O)[C@H](O)[C@H]2O)[C@H]1O[C@@H]1O[C@H](CO)[C@@H](O)[C@H](O)[C@H]1O)C3` [Reb A, rebaudioside A]: the “sweetening power / sweetness compared with other glycosides” value is “highest sweetening power of all the glycosides; also recorded: more potent and more pleasant tasting than stevioside”.
Regarding `C=C1C[C@@]23CC[C@H]4[C@@](C)(CCC[C@@]4(C)C(=O)O[C@@H]4O[C@H](CO)[C@@H](O)[C@H](O)[C@H]4O)[C@@H]2CC[C@]1(O[C@@H]1O[C@H](CO)[C@@H](O)[C@H](O)[C@H]1O[C@@H]1O[C@H](CO)[C@@H](O)[C@H](O)[C@H]1O)C3` [stevioside], the “bitterness compared with other glycosides” value is “much more bitter than Reb A and other glycosides”; the “sweetening power / sweetness compared with other glycosides” value was “much less sweet”.
